Test results as given in PubChem BioAssay AID1963441 (Molecular Pharmacology Branch, DTP, NCI, 2024).
Blank lines part the entries; values can stand above or below the compound they belong to.

System: NCI-H1876 complex spheroid growth, % test/control
Assay: Anticancer human tumor NCI-H1876 cell line growth inhibition [Asc];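 further: compound exposure lasted 7 days starting three days after seeding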;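 on viability, T/C: 100% = DMSO vehicle control wells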
Settings: for IC50: curve of first compound; for viability, T/C: stronger effect = lower value
Method: Multicellular complex tumor spheroid response to apoptosis pathway targeting inhibitors Alrizomadlin, Pelcitoclax, and Dasminapant in combination with a variety of drugs and investigational agents in selected tumor cell lines
The MDM2 inhibitor alrizomadlin, the Bcl-2/Bcl-xL inhibitor pelcitoclax, and the IAPs inhibitor dasminapant were evaluated both individually and in combination with standard of care and investigational anticancer small molecules within a complex spheroid model of solid tumors. . Complex spheroids include a stromal component modeled by human endothelial cells (HUVEC) and fibroblasts modeled by human mesenchymal stem cells (MSCs). The concentration ranges selected for each drug and investigational agent were based upon clinically achievable concentrations if the clinical Cmax of the agent was known.
Compounds. The drugs and investigational agents: alrizomadlin (APG-115; NSC831270), pelcitoclax (APG-1252; NSC835773), dasminapant (APG-1387;NSC834197), TAK-243 (NSC785004), copanlisib (NSC809693), olaparib (NSC753686), talazoparib (NSC767125), cobimetinib (NSC 768068), eltanexor (KPT-8602, NSC 794443), abemaciclib (NSC 768073), sotorasib (NSC818433), adagrasib (NSC 831453), MRTX-1133 (NSC 836407), Iadademestat (ORY1001, NSC 806812), and RMC-4630 (NSC839698), were obtained from the NCI Developmental Therapeutics Program Chemical Repository. The FDA-approved anticancer drug set is available from the Developmental Therapeutics Program at https://dtp.cancer.gov/organization/dscb/obtaining/available plates.htm. […] The stock solutions were prepared in dimethyl sulfoxide (DMSO, Sigma-Aldrich, St. Louis, MO, cat. D2650) at 800-fold the tested concentration and stored at -70 degrees C prior to their use. All drugs and investigational agents were tested over a range starting from a high concentration at or near the clinical Cmax and decreasing in half-log increments. If the clinical Cmax for an agent had not been determined, the highest concentration tested was 10 microM.
The patient-derived cancer (PDC) cell lines include five colon adenocarcinomas: 186277-243-T-J2-PDC, 616215-338-R-J1-PDC, 439559-082-T-J2-PDC, 463943-066-T-J2-PDC, and 519858-162-T-J1-PDC; three pancreatic carcinomas: 323965-272-R-J2-PDC, 521955-158-R6-J3-PDC, and 521955-158-R2-J5-PDC; two uterine sarcomas: 327498-152-R-J2-PDC and 993429-296-R-J1-PDC; two rhabdomyosarcomas: 755483-174-R-J1-PDC and 772245-204-R-J1-PDC; two soft tissue sarcomas: 126254-015-R-J1-PDC and 494315-158-R-J1-PDC; two malignant fibrous histiocytomas: 317291-083-R-J1-PDC and 596521-263-R-J1-PDC; two breast carcinomas: 171881-019-R-J1-PDC and 885512-296-R-J2-PDC; and one ovarian carcinoma: 6556581-035-R-J-PDC were obtained from the NCI PDMR, (https://pdmr.cancer.gov). The established cell lines HSSY-2 synovial sarcoma (RRID:CVCL 8719), SYO-1 synovial sarcoma (RRID:CVCL_7146), MPNST malignant peripheral neural sheath tumor were obtained from the Sloan Kettering Institute. The following established cell lines were purchased from the American Type Culture Collection (ATCC, Manassas, VA), Sor the received from the NCI repository:, PANC-1 pancreatic carcinoma (CRL-1469, RRID:CVCL_0480), OVCAR-5 ovarian carcinoma (RRID:CVCL_1628), OVCAR-8 ovarian carcinoma (RRID:CVCL_1629), , MCF-7 breast carcinoma (CRL-12584, RRID:CVCL_0031), MDA-MB-231 breast carcinoma (CRL-12532, RRID:CVCL_0062), NCI-H1876 small cell lung carcinoma (CRL-5902, RRID:CVCL_1503), NCI-H510A small cell lung carcinoma (HTB-184, RRID:CVCL_1565), NCI-H1417 (CRL-5869, RRID:CVCL_1469), and NCI-H196 small cell lung carcinoma (CRL-5823, RRID:CVCL_1509). Dr. Peter Houghton (Greehey Children's Cancer Research Institute, University of Texas Health Science Center, San Antonio, TX) provided Rh-18 rhabdomyosarcoma (RRID:CVCL_1659). Pooled donor human umbilical vein endothelial cells (HUVEC, Lonza, cat. CC-2519) and human mesenchymal stem cells (hMSC, Lonza, cat. PT-2501) were purchased from Lonza (Walkersville, MD).
Cell Culture. […]

[1] = second compound 0.0316 µM, first compound 0.0316 µM
[2] = second compound 0.0316 µM, first compound 0.1 µM
[3] = second compound 0.0316 µM, first compound 0.316 µM
[4] = second compound 0.0316 µM, first compound 1 µM
[5] = second compound 0.0316 µM, first compound 3.16 µM
[6] = second compound 0.0316 µM, first compound 10 µM
[7] = second compound 0.1 µM, first compound 0.0316 µM
[8] = second compound 0.1 µM, first compound 0.1 µM
[9] = second compound 0.1 µM, first compound 0.316 µM
[10] = second compound 0.1 µM, first compound 1 µM
[11] = second compound 0.1 µM, first compound 3.16 µM
[12] = second compound 0.1 µM, first compound 10 µM
[13] = second compound 0.316 µM, first compound 0.0316 µM
[14] = second compound 0.316 µM, first compound 0.1 µM
[15] = second compound 0.316 µM, first compound 0.316 µM
[16] = second compound 0.316 µM, first compound 1 µM
[17] = second compound 0.316 µM, first compound 3.16 µM
[18] = second compound 0.316 µM, first compound 10 µM
[19] = second compound 1 µM, first compound 0.0316 µM
[20] = second compound 1 µM, first compound 0.1 µM
[21] = second compound 1 µM, first compound 0.316 µM
[22] = second compound 1 µM, first compound 1 µM
[23] = second compound 1 µM, first compound 3.16 µM
[24] = second compound 1 µM, first compound 10 µM

IC50 (second compound 0.0316 µM): 5.7 µM | IC50 (second compound 0.1 µM): 5.38 µM | IC50 (second compound 0.316 µM): 5.65 µM | IC50 (second compound 1 µM): 5.54 µM | IC50 (second compound 3.16 µM): 5.15 µM | IC50 (second compound 10 µM): 5.43 µM
Compound: C=C(F)C(=O)N1CCN(c2nc(OCC3CCCN3C)nc3c2CCN(c2cccc4cccc(Cl)c24)C3)CC1CC#N (centres undefined) + Cc1c(S(C)(=O)=O)c(-c2cc(F)cc(N3CCN(c4ccc(NS(=O)(=O)c5ccc(NC(CCN6CCC(C(=O)OCCCP(=O)(O)O)CC6)CSc6ccccc6)c(S(=O)(=O)C(F)(F)F)c5)cc4)CC3)c2)c(-c2ccc(Cl)cc2)n1C(C)C
viability, T/C [1]: 96.7% | viability, T/C [2]: 97.8% | viability, T/C [3]: 102% | viability, T/C [4]: 90.5% | viability, T/C [5]: 97.5% | viability, T/C [6]: 5.25% | viability, T/C [7]: 83.6% | viability, T/C [8]: 86.1% | viability, T/C [9]: 91.9% | viability, T/C [10]: 94% | viability, T/C [11]: 98.1% | viability, T/C [12]: 2.68% | viability, T/C [13]: 104% | viability, T/C [14]: 94.9% | viability, T/C [15]: 96.5% | viability, T/C [16]: 98.8% | viability, T/C [17]: 102% | viability, T/C [18]: 1.38% | viability, T/C [19]: 91.5% | viability, T/C [20]: 97.1% | viability, T/C [21]: 94.1% | viability, T/C [22]: 92% | viability, T/C [23]: 99.3% | viability, T/C [24]: 2.82% | viability, T/C (second compound 3.16 µM, first compound 0.0316 µM): 90.6% | viability, T/C (second compound 3.16 µM, first compound 0.1 µM): 93.6% | viability, T/C (second compound 3.16 µM, first compound 0.316 µM): 97.8% | viability, T/C (second compound 3.16 µM, first compound 1 µM): 88.5% | viability, T/C (second compound 3.16 µM, first compound 3.16 µM): 86.6% | viability, T/C (second compound 3.16 µM, first compound 10 µM): 0.42% | viability, T/C (second compound 10 µM, first compound 0.0316 µM): 95.7% | viability, T/C (second compound 10 µM, first compound 0.1 µM): 103% | viability, T/C (second compound 10 µM, first compound 0.316 µM): 81.9% | viability, T/C (second compound 10 µM, first compound 1 µM): 91.3% | viability, T/C (second compound 10 µM, first compound 3.16 µM): 95% | viability, T/C (second compound 10 µM, first compound 10 µM): 1.21%

IC50 (second compound 0.00316 µM): > 10 µM | IC50 (second compound 0.01 µM): > 10 µM | IC50 (second compound 0.0316 µM): > 10 µM | IC50 (second compound 0.1 µM): > 10 µM | IC50 (second compound 0.316 µM): > 10 µM | IC50 (second compound 1 µM): > 10 µM
Compound: C#Cc1c(F)ccc2cc(O)cc(-c3ncc4c(N5CC6CCC(C5)N6)nc(OCC56CCCN5CC(F)C6)nc4c3F)c12 (centres undefined) + CNC(C)C(=O)NC1CN(S(=O)(=O)c2cccc(S(=O)(=O)N3CCC4CCC(C(=O)NC(c5ccccc5)c5ccccc5)N4C(=O)C(NC(=O)C(C)NC)C3)c2)CCC2CCC(C(=O)NC(c3ccccc3)c3ccccc3)N2C1=O
viability, T/C (second compound 0.00316 µM, first compound 0.0316 µM): 101% | viability, T/C (second compound 0.00316 µM, first compound 0.1 µM): 88.2% | viability, T/C (second compound 0.00316 µM, first compound 0.316 µM): 103% | viability, T/C (second compound 0.00316 µM, first compound 1 µM): 90.3% | viability, T/C (second compound 0.00316 µM, first compound 3.16 µM): 93.5% | viability, T/C (second compound 0.00316 µM, first compound 10 µM): 86.7% | viability, T/C (second compound 0.01 µM, first compound 0.0316 µM): 96.9% | viability, T/C (second compound 0.01 µM, first compound 0.1 µM): 92.3% | viability, T/C (second compound 0.01 µM, first compound 0.316 µM): 101% | viability, T/C (second compound 0.01 µM, first compound 1 µM): 92.9% | viability, T/C (second compound 0.01 µM, first compound 3.16 µM): 91.8% | viability, T/C (second compound 0.01 µM, first compound 10 µM): 89.3% | viability, T/C [1]: 105% | viability, T/C [2]: 88.6% | viability, T/C [3]: 101% | viability, T/C [4]: 93.9% | viability, T/C [5]: 102% | viability, T/C [6]: 95.7% | viability, T/C [7]: 106% | viability, T/C [8]: 99.4% | viability, T/C [9]: 104% | viability, T/C [10]: 94.6% | viability, T/C [11]: 94.5% | viability, T/C [12]: 82.8% | viability, T/C [13]: 109% | viability, T/C [14]: 101% | viability, T/C [15]: 89.8% | viability, T/C [16]: 108% | viability, T/C [17]: 107% | viability, T/C [18]: 96% | viability, T/C [19]: 90.3% | viability, T/C [20]: 89.8% | viability, T/C [21]: 98% | viability, T/C [22]: 106% | viability, T/C [23]: 103% | viability, T/C [24]: 92.2%
